Data reported in US20160324796A1, “COMPOSITIONS AND THEIR USE TO TREAT COMPLICATIONS OF ANEURYSMAL SUBARACHNOID HEMMORRHAGE” (Edge Therapeutics, Inc., priority 2007, published 2016).
Like-named read-outs stand apart in the source and are kept apart here.

Tests used:
[1] = mongrel, dog, in vivo
From the text: (§1) On days 8 and 15, the animals were anesthetized, and angiography, removal of CSF from the cistern magna and collection of plasma, were repeated. Other endpoints included daily blood pressure measurements, behavior assessment, and brain and spinal cord pathology. Animals were euthanized under anesthesia on day 28 or 49, perfused with PBS and then neutral buffered formalin, and the brains subjected to histological analysis.
The animals are grouped according to whether the animals died or were euthanized at an unscheduled time (DOS) or underwent scheduled necropsy (SNC).

[2] = Preclinical Study 2: CSF (cisterna magna) concentration of nimodipine; type: in vivo, mongrel dogs; conditions: oral nimodipine 0.86 mg/kg six times per day
From the text: as §1
Values are means±standard error of the mean (n=8 per measurement).

COCCOC(=O)C1=C(C)NC(C)=C(C(=O)OC(C)C)C1c1cccc([N+](=O)[O-])c1 (stereo not shown) [nimodipine, Isopropyl 2-methoxyethyl 1,4-dihydro-2,6-dimethyl-4-(m-nitrophenyl)-3,5-pyridinedicarboxylate]
0: Spinal Cord, Lumbar: mineralization; minimal ([1]; female, 49 d) | Spinal Cord, Lumbar: within normal limits ([1]; female, 49 d) | Spinal Cord, Thoracic: fibroplasia; minimal ([1]; female, 49 d) | Spinal Cord, Thoracic: hemorrhage; minimal ([1]; female, 49 d) | Spinal Cord, Thoracic: inflammation, granulomatous; minimal ([1]; female, 49 d) | Spinal Cord, Thoracic: inflammation, subacute/chronic; minimal ([1]; female, 49 d) | Spinal Cord, Thoracic: macrophages, pigmented; minimal ([1]; female, 49 d) | Spinal Cord, Thoracic: within normal limits ([1]; female, 49 d) | Brain discoloration, red, # of animals ([1]; male, 28 d) | Brain focus/foci, red, # of animals ([1]; male, 28 d) | Brain nodule, # of animals ([1]; male, 28 d) | Brain: chromatolysis, central, neuronal; minimal ([1]; male, 28 d) | Brain: degeneration, axonal/myelin; mild ([1]; male, 28 d) | Brain: degeneration, axonal/myelin; minimal ([1]; male, 28 d) | Brain: degeneration; mild ([1]; male, 28 d) | Brain: degeneration; minimal ([1]; male, 28 d) | Brain: granulation tissue; mild ([1]; male, 28 d) | Brain: granulation tissue; minimal ([1]; male, 28 d) | Brain: hemorrhage; mild ([1]; male, 28 d) | Brain: hemorrhage; minimal ([1]; male, 28 d) | Brain: hemorrhage; moderate ([1]; male, 28 d) | Brain: infiltration, lymphoid, perivascular; minimal ([1]; male, 28 d) | Brain: inflammation, meningeal; minimal ([1]; male, 28 d) | Brain: inflammation, subacute/chronic; mild ([1]; male, 28 d) | Brain: inflammation, subacute/chronic; minimal ([1]; male, 28 d) | Brain: macrophages, pigmented; minimal ([1]; male, 28 d) | Brain: mineralization focal; minimal ([1]; male, 28 d) | Brain: neovascularization; minimal ([1]; male, 28 d) | Brain: within normal limits ([1]; male, 28 d) | Spinal Cord, Cervical: degeneration, axonal/myelin; minimal ([1]; male, 28 d) | Spinal Cord, Cervical: fibroplasia; minimal ([1]; male, 28 d) | Spinal Cord, Cervical: inflammation, granulomatous; moderate ([1]; male, 28 d) | Spinal Cord, Cervical: within normal limits ([1]; male, 28 d) | Spinal Cord, Lumbar: fibroplasia; minimal ([1]; male, 28 d) | Spinal Cord, Lumbar: hemorrhage; minimal ([1]; male, 28 d) | Spinal Cord, Lumbar: mineralization; minimal ([1]; male, 28 d) | Spinal Cord, Lumbar: within normal limits ([1]; male, 28 d) | Spinal Cord, Thoracic: fibroplasia; minimal ([1]; male, 28 d) | Spinal Cord, Thoracic: hemorrhage; minimal ([1]; male, 28 d) | Spinal Cord, Thoracic: inflammation, granulomatous; minimal ([1]; male, 28 d) | Spinal Cord, Thoracic: inflammation, subacute/chronic; minimal ([1]; male, 28 d) | Spinal Cord, Thoracic: macrophages, pigmented; minimal ([1]; male, 28 d) | Spinal Cord, Thoracic: within normal limits ([1]; male, 28 d) | Brain discoloration, red, # of animals ([1]; male, 49 d) | Brain focus/foci, red, # of animals ([1]; male, 49 d) | Brain nodule, # of animals ([1]; male, 49 d) | Brain: chromatolysis, central, neuronal; minimal ([1]; male, 49 d) | Brain: degeneration, axonal/myelin; mild ([1]; male, 49 d) | Brain: degeneration, axonal/myelin; minimal ([1]; male, 49 d) | Brain: degeneration; mild ([1]; male, 49 d) | Brain: degeneration; minimal ([1]; male, 49 d) | Brain: fibroplasia; minimal ([1]; male, 49 d) | Brain: granulation tissue; mild ([1]; male, 49 d) | Brain: granulation tissue; minimal ([1]; male, 49 d) | Brain: hemorrhage; mild ([1]; male, 49 d) | Brain: hemorrhage; minimal ([1]; male, 49 d) | Brain: hemorrhage; moderate ([1]; male, 49 d) | Brain: infiltration, lymphoid, perivascular; minimal ([1]; male, 49 d) | Brain: inflammation, granulomous; mild ([1]; male, 49 d) | Brain: inflammation, meningeal; minimal ([1]; male, 49 d) | Brain: inflammation, subacute/chronic; mild ([1]; male, 49 d) | Brain: macrophages, pigmented; mild ([1]; male, 49 d) | Brain: macrophages, pigmented; minimal ([1]; male, 49 d) | Brain: mineralization focal; minimal ([1]; male, 49 d) | Brain: neovascularization; minimal ([1]; male, 49 d) | Brain: within normal limits ([1]; male, 49 d) | Spinal Cord, Cervical: degeneration, axonal/myelin; minimal ([1]; male, 49 d) | Spinal Cord, Cervical: fibroplasia; minimal ([1]; male, 49 d) | Spinal Cord, Cervical: fibroplasia; moderate ([1]; male, 49 d) | Spinal Cord, Cervical: hemorrhage; minimal ([1]; male, 49 d) | Spinal Cord, Cervical: inflammation, granulomatous; minimal ([1]; male, 49 d) | Spinal Cord, Cervical: inflammation, granulomatous; moderate ([1]; male, 49 d) | Spinal Cord, Cervical: inflammation, subacute/chronic; mild ([1]; male, 49 d) | Spinal Cord, Cervical: macrophages, pigmented; minimal ([1]; male, 49 d) | Spinal Cord, Lumbar: fibroplasia; minimal ([1]; male, 49 d) | Spinal Cord, Lumbar: hemorrhage; minimal ([1]; male, 49 d) | Spinal Cord, Lumbar: mineralization; minimal ([1]; male, 49 d) | Spinal Cord, Lumbar: within normal limits ([1]; male, 49 d) | Spinal Cord, Thoracic: fibroplasia; minimal ([1]; male, 49 d) | Spinal Cord, Thoracic: hemorrhage; minimal ([1]; male, 49 d) | Spinal Cord, Thoracic: inflammation, granulomatous; minimal ([1]; male, 49 d) | Spinal Cord, Thoracic: inflammation, subacute/chronic; minimal ([1]; male, 49 d) | Spinal Cord, Thoracic: macrophages, pigmented; minimal ([1]; male, 49 d) | Spinal Cord, Thoracic: within normal limits ([1]; male, 49 d)
low or undetectable: CSF nimodipine concentrations [2]
